Results on 29 compounds are retold here after patent publication US11524966B1 (Valo Early Discovery, Inc., priority 2017, dated 2022).

By pIC50 is commonly meant the IC50 on a negative log10 scale, so that one unit is a factor of ten.

pIC50: −log10 of the molar value.

The assay addresses T1, USP28 (His-tagged USP28-FL-mammalian) (Homo sapiens, UniProt Q96RU2).
T1 construct: Expression of USP28 (1-1077)-TEV-6*His (pTT5 vector); made in house; host or cells: Expi293f cells (pTT5 vector)
T1 sequence (Q96RU2 1-1077): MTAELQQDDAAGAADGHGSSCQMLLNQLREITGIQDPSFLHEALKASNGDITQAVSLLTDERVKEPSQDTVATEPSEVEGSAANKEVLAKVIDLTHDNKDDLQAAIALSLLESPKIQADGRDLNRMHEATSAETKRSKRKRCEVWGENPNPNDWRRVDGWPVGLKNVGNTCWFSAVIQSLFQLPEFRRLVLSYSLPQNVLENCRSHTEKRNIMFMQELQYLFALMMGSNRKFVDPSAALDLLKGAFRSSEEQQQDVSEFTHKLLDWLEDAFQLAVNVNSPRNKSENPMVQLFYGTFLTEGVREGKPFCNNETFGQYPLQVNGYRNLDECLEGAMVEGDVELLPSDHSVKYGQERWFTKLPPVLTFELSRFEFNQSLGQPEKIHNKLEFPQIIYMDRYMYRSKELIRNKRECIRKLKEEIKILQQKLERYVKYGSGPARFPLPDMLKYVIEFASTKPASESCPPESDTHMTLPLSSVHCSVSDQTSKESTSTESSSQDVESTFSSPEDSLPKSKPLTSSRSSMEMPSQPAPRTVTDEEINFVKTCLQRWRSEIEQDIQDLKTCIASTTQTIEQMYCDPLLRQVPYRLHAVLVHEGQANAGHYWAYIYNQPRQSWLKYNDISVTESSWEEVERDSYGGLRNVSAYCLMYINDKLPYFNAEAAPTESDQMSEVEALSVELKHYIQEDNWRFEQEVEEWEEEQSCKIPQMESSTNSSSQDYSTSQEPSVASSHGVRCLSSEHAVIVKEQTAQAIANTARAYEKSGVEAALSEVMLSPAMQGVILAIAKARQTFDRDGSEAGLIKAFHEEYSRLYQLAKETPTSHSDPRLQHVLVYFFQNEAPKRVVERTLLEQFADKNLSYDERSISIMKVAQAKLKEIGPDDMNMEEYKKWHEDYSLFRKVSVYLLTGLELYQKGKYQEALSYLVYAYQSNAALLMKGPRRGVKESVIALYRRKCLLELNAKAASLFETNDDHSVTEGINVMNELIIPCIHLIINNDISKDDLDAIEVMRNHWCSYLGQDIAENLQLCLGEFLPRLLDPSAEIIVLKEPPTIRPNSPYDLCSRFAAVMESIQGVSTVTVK
Put plainly: Ubiquitin-Rhodamine 110 Assay for USP28 Activity, Example A-1(a). Particulars: Ub-Rh110 assay, Example A-1(a); read-out: USP28 A-1(a) IC50 range. Type of assay: biochemical. The gist of the method:
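Full-length His-tagged USP28 (1-1077, Expi293F-expressed; […]) was preincubated 30 min with compound (25 μM–1.3 nM, 10-point 3-fold) in 20 mM Tris-HCl pH 8.0, 3 mM BME, 0.03% BGG, 0.01% Triton X-100. Ub-Rh110 (25 nM) was then added for 45 min at room temperature, stopped with citric acid, and read by fluorescence (485/535 nm).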
`Cc1cnc2c(N)c(C(=O)N[C@H]3COc4cc(N5CC6COCC(C5)N6)ccc4C3)sc2n1` [Example 2-12, N-((3R)-7-(3-oxa-7,9-diazabicyclo[3.3.1]nonan-7-yl)chroman-3-yl)-7-amino-3-methylthieno[2,3-b]pyrazine-6-carboxamide]: the pIC50 is 6.70 to 7.30.
For `CCn1ccc2cc(C(=O)N[C@@H]3COc4cc(N5CC6CCC(C5)N6)ccc4C3)cnc21` (single isomer, unassigned) [Example 1-27] the value was 5.70 to 6.70; for `Cc1nc2sc(C(=O)N[C@H]3COc4cc(N5CCNCC5)cc(F)c4C3)c(N)c2s1` (single isomer, unassigned) [Example 1-37], below 5.70; for `Cc1ccc2c(N)c(C(=O)N[C@@H]3COc4c(ccc(N5CCNCC5)c4F)C3)sc2n1` [Example 1-34, (S)-3-amino-N-(8-fluoro-7-(piperazin-1-yl)chroman-3-yl)-6-methylthieno[2,3-b]pyridine-2-carboxamide], 5.70 to 6.70.
For `Cc1nc2sc(C(=O)N[C@@H]3COc4cc(N5CC6CCC(C5)N6)ccc4C3)c(N)c2s1` [Example 1-24, N-((3S)-7-(3,8-diazabicyclo[3.2.1]octan-3-yl)chroman-3-yl)-6-amino-2-methylthieno[2,3-d]thiazole-5-carboxamide], the pIC50 was 5.70 to 6.70.
As for `Cc1ccc2c(N)c(C(=O)N[C@H]3COc4cc(N5CC6CNCC(C5)C6(F)F)ccc4C3)sc2n1` [Example 2-1, 3-Amino-N-((3R)-7-(9,9-difluoro-3,7-diazabicyclo[3.3.1]nonan-3-yl)chroman-3-yl)-6-methylthieno[2,3-b]pyridine-2-carboxamide], the figure is 7.30 to 9.00; as for `Cc1ccc2c(N)c(C(=O)N[C@H]3COc4cc(N5CCNCC5)c(OC(F)(F)F)cc4C3)sc2n1` (single isomer, unassigned) [Example 1-31], 5.70 to 6.70; as for `Cc1ccc2c(N)c(C(=O)N[C@@H]3COc4cc(N5CCNCC5)c(F)cc4C3)sc2n1` [Example 1-36, (S)-3-amino-N-(6-fluoro-7-(piperazin-1-yl)chroman-3-yl)-6-methylthieno[2,3-b]pyridine-2-carboxamide], below 5.70.
As for `Cc1nc2sc(C(=O)N[C@@H]3COc4cc(N5CC6CCC(C5)N6)cc(F)c4C3)c(N)c2s1` (single isomer, unassigned) [Example 1-40], the figure is 5.70 to 6.70; as for `Cc1ccc2c(N)c(C(=O)N[C@H]3COc4cc(N5CCN[C@H](C)[C@H]5C)ccc4C3)sc2n1` (single isomer, unassigned) [Example 1-11], 7.30 to 9.00; as for `Cc1cc(C)c2c(N)c(C(=O)N[C@H]3COc4cc(N5CCNCC5)c(C#N)c(F)c4C3)sc2n1` [Example 2-32, (R)-3-amino-N-(6-cyano-5-fluoro-7-(piperazin-1-yl)chroman-3-yl)-4,6-dimethylthieno[2,3-b]pyridine-2-carboxamide], 7.30 to 9.00.
Consider `Cc1ccc2c(N)c(C(=O)N[C@H]3COc4cc(N5CCCC56CNC6)ccc4C3)sc2n1` [Example 2-7, (R)-N-(7-(2,5-diazaspiro[3.4]octan-5-yl)chroman-3-yl)-3-amino-6-methylthieno[2,3-b]pyridine-2-carboxamide], for which the negative-log IC50 (pIC50) is 7.30 to 9.00.
For `Cc1cc(C)c2c(N)c(C(=O)N[C@H]3COc4c(C#N)c(N5CCNCC5)cc(F)c4C3)sc2n1` [Example 2-31, (R)-3-amino-N-(8-cyano-5-fluoro-7-(piperazin-1-yl)chroman-3-yl)-4,6-dimethylthieno[2,3-b]pyridine-2-carboxamide] the value was 7.30 to 9.00; for `Cc1ccc2c(N)c(C(=O)N[C@H]3COc4cc(N5C6CCC5CNC6)ccc4C3)sc2n1` [Example 2-6, N-((3R)-7-(3,8-diazabicyclo[3.2.1]octan-8-yl)chroman-3-yl)-3-amino-6-methylthieno[2,3-b]pyridine-2-carboxamide], 7.30 to 9.00; for `O=C(N[C@H]1COc2cc(N3CC4CCC(C3)N4)ccc2C1)c1ccc(NCc2ccccc2)nc1` [Example 2-25, N-((3R)-7-(3,8-diazabicyclo[3.2.1]octan-3-yl)chroman-3-yl)-6-(benzylamino)nicotinamide], 6.70 to 7.30.
As for `CO[C@H]1CN(c2ccc3c(c2)OC[C@H](NC(=O)c2sc4nc(C)ccc4c2N)C3)C[C@@H]1N` (single isomer, unassigned) [Example 3-1], the figure is 7.30 to 9.00; as for `Cc1ccc2c(N)c(C(=O)N[C@H]3COc4cc(N5CCN[C@H](C)[C@@H]5C)ccc4C3)sc2n1` (single isomer, unassigned) [Example 1-9], 7.30 to 9.00.
Consider `Cc1nc2sc(C(=O)N[C@@H]3COc4cc(N5CCNCC5)ccc4C3)c(N)c2s1` [Example 1-26, (S)-6-amino-2-methyl-N-(7-(piperazin-1-yl)chroman-3-yl)thieno[2,3-d]thiazole-5-carboxamide], for which the negative-log IC50 (pIC50) was 5.70 to 6.70.
As for `Cc1ccc2c(N)c(C(=O)N[C@@H]3COc4cc(N5CCNCC5)ccc4C3)sc2n1` (single isomer, unassigned) [Example 1-2], the figure is 5.70 to 6.70.
As for `Cc1cc(C)c2c(N)c(C(=O)N[C@H]3COc4cc(N5CCNCC5)ccc4C3)sc2n1` [Example 2-17, (R)-3-amino-4,6-dimethyl-N-(7-(piperazin-1-yl)chroman-3-yl)thieno[2,3-b]pyridine-2-carboxamide], the figure is 7.30 to 9.00; as for `Cc1cnc2c(N)c(C(=O)N[C@@H]3CCc4cc(N5CCNCC5)c(C)cc4C3)sc2n1` (single isomer, unassigned) [Example 2-35], below 5.70; as for `Cc1nc2sc(C(=O)N[C@@H]3COc4cc(N5CCNCC5)ccc4C3)c(N)c2cc1F` (single isomer, unassigned) [Example 1-16], 5.70 to 6.70.
For `Cc1nc2sc(C(=O)N[C@@H]3COc4cc(N5CCNCC5)cc(F)c4C3)c(N)c2s1` (single isomer, unassigned) [Example 1-38] the value was 7.30 to 9.00.
As to `Cc1nc2sc(C(=O)N[C@H]3COc4cc(N5CC6CCCC(C5)N6)ccc4C3)c(N)c2s1` [Example 2-27], the pIC50 is 7.30 to 9.00.
As for `Cc1cc(C(F)(F)F)c2c(N)c(C(=O)N[C@H]3COc4cc(N5CC6CNCC(C5)O6)ccc4C3)sc2n1` [Example 2-23, N-((3R)-7-(9-oxa-3,7-diazabicyclo[3.3.1]nonan-3-yl)chroman-3-yl)-3-amino-6-methyl-4-(trifluoromethyl)thieno[2,3-b]pyridine-2-carboxamide], the figure is 7.30 to 9.00.
As for `Cc1ccc2c(N)c(C(=O)N[C@@H]3COc4cc(N5CC6CCC(C5)N6)cc(F)c4C3)sc2n1` (single isomer, unassigned) [Example 1-30], the figure is 5.70 to 6.70; as for `Cc1nc2sc(C(=O)N[C@H]3COc4cc(N5CC6CCC(C5)N6)cc(F)c4C3)c(N)c2s1` (single isomer, unassigned) [Example 1-39], 7.30 to 9.00; as for `Cc1ccc2c(N)c(C(=O)N[C@H]3COc4cc(N5CCC[C@](N)(C(F)(F)F)C5)ccc4C3)sc2n1` (single isomer, unassigned) [Example 3-4], 7.30 to 9.00.
As for `COc1nc2sc(C(=O)N[C@H]3COc4cc(N5CCNCC5)ccc4C3)c(N)c2cc1F` [Example 2-16, (R)-3-amino-5-fluoro-6-methoxy-N-(7-(piperazin-1-yl)chroman-3-yl)thieno[2,3-b]pyridine-2-carboxamide], the figure is 6.70 to 7.30.
